Like-named read-outs stand apart in the source and are kept apart here. Each block holds one molecule with its values, some of them ahead of it.
Key:
visual cycle [1] = assay: Functional biological activity in the retina: visual cycle inhibition / dark adaptation rate by ERG; settings: for effect on normal function of the retina: mouse, in vivo
From the text: (§2) The protocol for measuring DA rates by ERG is based on the kinetics of functional visual recovery from photo-bleaching of visual pigment by brief exposure to extremely bright light.
(§3) A retinoid useful for this purpose is 13-cis-retinoic acid (RA, also known as isotretinoin).

[2] = Ocular levels of 14C-Compound A in the retina and RPE of rabbits (LSC); format: in vivo, Dutch belted rabbits; settings: for Amount of 14C-compound A in retina and RPE at tmax: rabbit, single 40 μL TO eyedrop, mean of 6 eyes
Protocol: Dutch belted rabbits were dosed TO with a single 40 μL eyedrop containing either 0.50%, 0.15% or 0.05% weight/volume ^14C-Compound A in 20%, 6% or 2% weight/volume, respectively, β-cyclodextrin sulfobutylether sodium salt in phosphate-buffered saline (Table 1). At different times after dosing the eyes of the rabbits were enucleated, dissected and the amount of ^14C-Compound A in the retina and RPE together was measured by LSC. Each value represents the mean value from 6 eyes.

visual cycle [3] = settings: mouse, in vivo
From the text: as §2, §3

in vivo = assay: in vivo; set-up: species or system C57BL/6 mice; settings: ip, 10 mg/kg
From the text: (§1) The target tissue, for the biological activity of compounds which reversibly react with RAL, e.g. Compounds A, B and C, is the outer segment of retinal photoreceptor cells.

A2E formation = A2E formation in the abcr -/- mouse after repeated IP dosing; format: in vivo; settings: 10 mg/kg IP, repeated daily for 56 days, p<0.01
From the text: as §1

Compound: CC(C)(O)c1cc2nc(-c3ccccc3)oc2cc1N [B]
effect on normal function of the retina (visual cycle [1]): do not alter the normal function of the retina

Amount of 14C-compound A in retina and RPE at tmax ([2]; 0.05% w/v in 2% w/v βCSSA): 23.1 ng/g
Amount of 14C-compound A in retina and RPE at tmax ([2]; 0.15% w/v in 6% w/v βCSSA): 47.0 ng/g
Amount of 14C-compound A in retina and RPE at tmax ([2]; 0.50% w/v in 20% w/v βCSSA): 131 ng/g
amounts found in rabbit retina/RPE ([2]; within one hour of TO dosing): Significant amounts
inhibition of the visual cycle (visual cycle [3]): does not inhibit the visual cycle
Cmax (in vivo; C57BL/6, mouse): 14400 ng/g
Tmax in the posterior eyecup (in vivo; mouse): Thirty
Compound: CC(C)(O)c1nc2ccc(Cl)cc2cc1N [Compound A]
effect on normal function of the retina (visual cycle [3]): do not alter the normal function of the retina
effect on rate of dark adaptation (DA) (visual cycle [3]): nor does it slow the rate of dark adaptation
reduction of A2E formation (A2E formation): 71%

Compound: CC1=C(/C=C/C(C)=C/C=C/C(C)=C\C(=O)O)C(C)(C)CCC1 [RA, 13-cis-retinoic acid, reference compound]
visual cycle inhibition (visual cycle [1]; mice, IP 20 mg/kg (FIG. 3)): show visual cycle inhibition
inhibition of dark adaptation (DA) (visual cycle [1]; mice, TO one or two 30 μL eyedrops, 0.2% w/v RA in 20% w/v β-cyclodextrin sulfobutylether sodium salt in PBS (FIG. 3)): dose-responsive inhibition of DA similar to that observed after IP dosing

Compound: CC(C)(O)c1cc2oc(-c3ccccc3)nc2cc1N [C]
effect on normal function of the retina (visual cycle [1]): do not alter the normal function of the retina

— US12097188B2, “Compositions and methods for the treatment of macular degeneration” (Aldeyra Therapeutics, Inc., priority 2009, dated 2024)
